Data taken from US9433601B2, “Chewing gum compositions comprising cannabinoids” (Stichting Sanammad, priority 2008, dated 2016).

Assay: Degradation of THC during preparation of the chewing gum (extraction and HPLC)
Format: physicochemical
Settings: gum base heated till 90° C.; main breakdown product dihydrocannabinol
Experimental: Samples were prepared by putting one gum in a 10.0 ml glass laboratory tube. 5.00 ml ethanol was added and the tube was shaken 3 times with a 5 minute interval. Then 5.00 ml mobile phase (acetonitrile: H2O+0.1% formic acid) was added. The tube was shaken and the gum was mashed with a Pasteur pipette. Then the solution was shaken again and the sample was filtered through a 0.2 micrometer filter. This is the impurity solution. An assay solution was prepared by diluting the impurity solution 100 times with mobile phase. The calculated amount of THC is based upon comparison with a reference solution with an exactly known amount of THC. Purities are calculated as peak area/sum of area's*100%. Impurities present in the placebo are not considered and known impurities are corrected with known response factors.

Structure (SMILES): CCCCCc1cc(O)c2c(c1)OC(C)(C)[C@@H]1CCC(C)=C[C@@H]21 [THC, (−)-(6aR,10aR)-6,6,9-trimethyl-3-pentyl-6a,7,8,10a-tetrahydro-6H-benzo[c]chromen-1-ol]
- degradation of THC during the preparation of the chewing gum: only a slight degradation
